Patent publication US9486471B2, “Combination therapy for the treatment of cancer” (McMaster University, priority 2012, dated 2016)

Tests used:
[1] = system: AML-OCI2 and AML-OCI3 cell lines; test: Volumetric cell counting of AML cell lines treated with DR antagonists and agonists; format: cell-based, human; details: 72 h, serum-free conditions
Protocol: Volumetric Cell Counting. The number of AML-OCI2 and AML-OCI3 cells present after 72 h treatment with DR antagonists (FIG. 16b) and agonist (FIG. 16c-d) were counted by measuring the number of events within a fixed volume following the grating strategy defined by forward scatter and side scatter clustering, 7AAD− and Hoechst+.
Due to the bioavailability of dopamine in fetal bovine serum (FBS) (Little et al., 2002), serum-free conditions were employed to assess the role of DRs in AML.

[2] = system: hematopoietic stem and progenitor cells (HSPC, CB lin-); test: Methylcellulose colony-forming assay, HSPC (CB lin-); details: 24 h treatment, colonies scored after 14 days
Protocol: (§1) AML/HPSC Cell Culture. AML cell lines, namely, OCI-AML2 (M4), OCI-AML3 (M4), HL-60 (M2) and MV-4-11(M5) were cultured in RPMI (Gibco) supplemented with 5% heated-inactivated FBS (HyClone). For DR agonist studies with R(+)-7-Hydroxy-DPAT hydrobromide (Sigma), serum-free conditions were employed instead due to the prevalence of dopamine in FBS (Little et al., 2002). AML patient blasts were cultured in IMDM supplemented with 5% heated inactivated FBS (HyClone), 5 ng/mL IL3 (R&D systems), 5×10^−5 M β-mercaptoethanol (Sigma) and BIT (StemCell Technologies). HSC media contained IMDM supplemented with 1% BSA (Sigma), 100 ng/mL SCF (R&D systems), 100 ng/mL Flt-3L (R&D systems) and 20 ng/mL TPO (R&D systems). Patient HSPC and AML samples were treated with compound or DMSO-vehicle (0.1%) for 24 h prior to CFU plating or xenotransplantation studies.
(§2) Methylcellulose Colony-Forming Assay. AML patient or CB lin− cells were cultured 24 hours in the presence of compound or DMSO-vehicle (0.1%) control. AML cells were plated at 50 000 cells/mL in Methocult GF H4434 (Stem Cell Technologies). CB lin− cells were plated at 1000 cells/mL in Methocult GF H4434 (Stem Cell Technologies). Colonies were scored after 14 days of culture using standard morphological criteria.

[3] = system: v1H9-Oct4-GFP neoplastic hPSC; test: Chemical screening of neoplastic hPSC reporter line (GFP / Hoechst, loss of pluripotency); format: cell-based, human
Protocol: In Vitro Culture Platform for Normal and Neoplastic hPSCs. Chemical screens involved v1H9-Oct4-GFP cells seeded at 5,000 cells per well in mouse embryonic fibroblast conditioned media (MEFCM) supplemented with 8 ng/ml bFGF. 24 hours later the media was exchanged for MEFCM with compounds at 10 μM and 0.1% DMSO, 0.1% DMSO (−BMP4) or 100 ng/ml of BMP4 and 0.1% DMSO (+BMP4) for 48 hours before being exchanged with fresh media with compound for a further 24 h (total compound treatment time 72 h) prior to being fixed and prepared for automated imaging and plate reader analysis. Confluent H9 & fibroblast-derived iPSC were seeded at 10,000 cells per well in MEFCM supplemented with 8 ng/ml bFGF. 24 hours later the cells were treated with compounds at 10 μM and 0.1% DMSO, 0.1% DMSO (−BMP4) or 100 ng/ml of BMP4 and 0.1% DMSO (+BMP4). Fresh MEFCM supplemented with compounds was exchanged daily for 5 days. On day 5, hPSC's were fixed and prepared for automated imaging and plate reader analysis. See supplementary experimental procedures for further details.
Imaging Neoplastic hPSC. Cells were fixed in 2% paraformaldehyde and stained with 10 μg/mL Hoechst 33342 (Invitrogen) with a Combi Multidrop Dispenser (Thermo). For experiments that involved Oct4 immunocytochemistry, a monoclonal antibody for Oct4 (BD) was used along with an Alexa-Fluor-647 secondary (Invitrogen). Immunocytochemical staining was performed by a Janus automated liquid handler (Perkin Elmer). Images were acquired at 10× N.A with an Arrayscan HCS VTI Reader (Cellomics) by means of epi-fluorescence illumination and standard filter sets.
Image Analysis. Image analysis was performed using custom scripts in Acapella software (Perkin Elmer). Nuclear objects were segmented from the Hoechst signal. For neoplastic cell lines, object intensity analysis was performed on GFP positive cells only. For normal cell lines, the fraction of Alexa-Fluor-647-positive cells was quantified. Images and well-level data were stored and analysed in a Columbus Database (Perkin Elmer) and further data analysis, compounds registration and hit identification in ActivityBase (IDBS).
These Collections have been previously scrutinized in numerous other mammalian cell lines (Diallo et al., 2010; Shoemaker, 2006).

[4] = system: HL-60, MV4-11 and OCI-AML3 leukemic cell lines; test: Normalized cell number of leukemic cell lines after 72 h incubation (Examples 1, 3); format: cell-based, human
Protocol: All three lines are leukemic cell lines. […] Each condition had three replicates.
The dopamine receptor antagonist and phenothiazine-related compound chlorpromazine was also investigated for effects on the AML cell lines HL-60, MV4-11 and OCI-AML3. Testing was performed as set out in Example 1.

[5] = system: CD14+ cells in primary AML; test: Flow cytometry frequency of CD14+ cells in primary AML; format: cell-based, human; details: 10 μM, 72 h; control 100%
[6] = system: normal HSCs and progenitors; test: Methocellulose colony formation of normal HSCs (Example 2); format: cell-based, human; details: 10 μM
Protocol: Normal HSCs and progenitors were sourced from either mobilized peripheral blood or umbilical cord blood of health patients. Primary AML cells were taken from patients diagnosed with AML. Both normal HSCs and primary AML cells were cultured under standard in vitro methocellulose assay conditions (see http://www.stemcell.com/en/Products/All-Products/MethoCult-H4434-Classic.aspx as well as Clinton Campbell et al. The human stem cell hierarchy is defined by a functional dependence on Mcl-1 for self-renewal capacity. Blood 116 (9) 1433-1442 (Jun. 4, 2010), hereby incorporated by reference) for at least 14 days before the number of colonies were recorded.

[7] = system: AML cell lines HL-60, OCI-AML2 and OCI-AML3
Protocol: All three lines are leukemic cell lines. HL-60 was derived from promyelocytic AML whereas MV 4-11 and OCI-AML3 are representative of AML. Each compound was incubated with the cells for 72 h. The control was DMSO (ie the vehicle used for the compound) for 72 h. Each condition had three replicates.
A series of dopamine receptor agonists, D3-antagonists, DR1 & 5-antagonists and multi-receptor antagonists were tested for cytotoxicity against three AML cell lines HL-60, OCI-AML2 and OCI-AML3. Testing was performed as set out in Example 1.

[8] = system: neoplastic hPSCs (v1H9-Oct4-GFP); test: Flow cytometry of Oct4 in neoplastic hPSCs; format: cell-based, human
[9] = system: AML patient blast cells; test: Methylcellulose colony-forming assay, AML patient blast-CFU; format: cell-based, human
Protocol: as §1, §2

## CSc1ccc2c(c1)N(CCC1CCCCN1C)c1ccccc1S2 (racemic) [thioridazine, 10-{2-[(RS)-1-Methylpiperidin-2-yl]ethyl}-2-methylsulfanylphenothiazine]
[1]
  number of AML cells: reduced the number of AML cells
[2]
  HSPC multilineage differentiation: retaining
[3]; 2446 compound screen, reduced mean GFP intensity and cell count
  hit in extended screen (loss of pluripotency): hits
[3]; Homo sapiens, 10 μM, 590 compound screen, read-out: Hoechst % residual activity (% RA)
  activity at 10 µM: > 30%
[4]; 0.1 μM
  normalized cell number: little effect
[4]; 1 μM
  normalized cell number: little effect
[4]; 10 μM
  normalized cell number / toxicity: reduced to almost zero
[5]
  normalized frequency of CD14+ cells: 20%
[6]; HSCs
  cell pellets of CFU colonies: pelleted cells are still visible
[6]; DMSO control about 100, at least 14 days
  colony forming potential of normal HSCs: about 66 total colonies
[7]
  cytotoxicity of AML cell lines: significant effect
[7]; 72 h, relative to control
  cell count: eradicate the AML cell lines
[8]
  cell number: reductions
  levels of Oct4: reductions
[9]; 10 μM, 24 h
  blast-CFU generation, DR+ subfraction of patient AML: reduction
  blast-CFU generation, DR- subfraction of patient AML: no reduction
[9]; 24 h treatment, colonies scored after 14 days
  AML proliferation/clonogenic capacity: reduction
[9]; dose not stated in the sentence (0.1, 1, 10 μM tested)
  AML-blast CFU formation: reduced
